Tested on: Calu-6 tumour xenograft
Experiment: Calu-6 tumour xenograft in vivo solid tumour model
Settings: once-daily oral, 28 days

## COc1cc2c(Oc3ccc4[nH]c(C)cc4c3F)ncnc2cc1OCCCN1CCCC1 [AZD2171, 4-(4-fluoro-2-methyl-1H-indol-5-yloxy)-6-methoxy-7-(3-(pyrrolidin-1-yl)propoxy)quinazoline]
1.5 mg/kg/day, P<0.01 one-tailed t test
  inhibition of Calu-6 tumour xenograft growth: 49%
3 mg/kg/day, P<0.0001 one-tailed t test
  inhibition of Calu-6 tumour xenograft growth: 69%
6 mg/kg/day, P<0.0001 one-tailed t test
  inhibition of Calu-6 tumour xenograft growth: 91%

From patent US20080125447A1, “Combination Therapy” (priority 2004, published 2008)
